Literature values in US6419959B1, “Galenic composition containing opioid antagonists” (Klinge Pharma GmbH, priority 1996, dated 2002).
Where two headings read alike, the source gives them in different places.

Experiments:
[1] = metabolites of naloxone present in the blood
[2] = tested on: patients with opioid-induced constipation; details: oral, maximally administered dose 12 mg
[3] = tested on: patients with opioid-induced constipation; details: oral
patients = details: oral

Structure (SMILES): CN1CC[C@]23c4c5ccc(O)c4O[C@H]2[C@@H](O)C=C[C@H]3[C@H]1C5 [morphine]
- patients in whom constipation arises during treatment (patients given morphine): approximately 85%

Structure (SMILES): C=CCN1CC[C@]23c4c5ccc(O[C@@H]6O[C@H](C(=O)O)[C@@H](O)[C@H](O)[C@H]6O)c4O[C@H]2C(=O)CC[C@@]3(O)[C@H]1C5 [naloxone-3-glucuronide]
- effectiveness of metabolite [1]: not effective or only weakly effective

Structure (SMILES): C=CCN1CC[C@]23c4c5ccc(O)c4O[C@H]2C(=O)CC[C@@]3(O)[C@H]1C5 [naloxone]
- effect on the gastrointestinal motility [2]: not determinable in any of the treated patients
- neutralisation of the constipating effect of loperamide (healthy probands; intravenously applied, 40 μg/kg/hr in 3 hr): could neutralize the constipating effect of loperamide
- neutralisation of the constipating effect of loperamide (healthy probands; oral administration of 16 or 32 mg): could neutralize the constipating effect of loperamide
- response to the treatment (neutralisation of constipation) ([3]; doses of up to 16 mg, three patients): two of the three patients responded
- neutralisation of constipation in the other patient (non-responder) ([3]; increase in dose of up to 24 mg within 3 hours): constipation could not be neutralized
- dose-dependent maximal naloxone plasma concentrations ([3]; plasma level determinations): up to 7.9 ng/ml
- effect on constipation (patients; up to 10% naloxone dose with respect to the opioid dose): No effect was determinable
- effect on constipation (patients; very high dose range 20% to 40% of the opioid dose): neutralization of constipation

Structure (SMILES): C=CCN1CC[C@]23c4c5ccc(O[C@@H]6O[C@H](C(=O)O)[C@@H](O)[C@H](O)[C@H]6O)c4O[C@H]2[C@H](O)CC[C@@]3(O)[C@H]1C5 [β-naloxol-3-glucuronide]
- effectiveness of metabolite [1]: not effective or only weakly effective

Structure (SMILES): C=CCN1CC[C@]23c4c5ccc(O)c4O[C@H]2[C@H](O)CC[C@@]3(O)[C@H]1C5 [β-naloxol]
- effectiveness of metabolite [1]: not effective or only weakly effective
